From US12180187B2, “1-phenyl-5-azinylpyrazolyl-3-oxyalkyl acids and their use for controlling unwanted plant growth” (BAYER AKTIENGESELLSCHAFT, priority 2019, dated 2024)

Key:
[1] = system: ABUTH; test: Post-emergence action at 320 g/ha against ABUTH; format: in vivo, Abutilon theophrasti; details: visual rating about 3 weeks after treatment vs untreated controls
Method in brief: (§1)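 Greenhouse pot plants in sandy loam received a foliar spray of WP- or EC-formulated compound at the one-leaf stage. Percent activity against untreated controls was assessed visually around three weeks later.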

[2] = system: STEME; test: Pre-emergence action at 320 g/ha against STEME; format: in vivo, Stellaria media; details: greenhouse, scored visually after about 3 weeks vs untreated controls, 100% = plants have died, 0% = like control plants
Source text: b) Seeds of monocotyledonous and dicotyledonous weed plants and crop plants are placed in plastic or organic planting pots and covered with soil. The compounds of the invention, formulated in the form of wettable powders (WP) or as emulsion concentrates (EC), are then applied onto the surface of the covering soil as aqueous suspension or emulsion with addition of 0.5% additive at a water application rate of 600 l/ha (converted). After the treatment, the pots are placed in a greenhouse and kept under good growth conditions for the trial plants. After about 3 weeks, the effect of the preparations is scored visually in comparison with untreated controls as percentages. For example, 100% activity=the plants have died, 0% activity=like control plants. Tables 13 to 26 below show the effects of selected compounds of the general formula (I) on various harmful plants and at an application rate corresponding to 320 g/ha, which were obtained by the experimental procedure mentioned above.

[3] = system: VIOTR; test: Pre-emergence action at 320 g/ha against VIOTR; format: in vivo, Viola tricolor; details: dosage 320 g/ha; for pest or weed control at 320 g/ha: Viola tricolor, 504 h
Method in brief: (§2)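 Pre-emergence soil-surface spray: WP or EC formulation, aqueous, 0.5% additive, 600 l/ha water volume. Greenhouse growth about 3 weeks; visual percent effect relative to untreated pots.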

[4] = system: HORMU; test: Post-emergence action at 320 g/ha against HORMU; format: in vivo, Hordeum murinum; details: visual rating about 3 weeks after treatment vs untreated controls
Source text: Accordingly, the compounds of the invention have good herbicidal action against a broad spectrum of weed grasses and broad-leaved weeds and are therefore suitable for controlling unwanted vegetation by the post-emergence method. • b) Seeds of monocotyledonous and dicotyledonous weeds and crop plants are placed in sandy loam in plastic or organic planting pots, covered with soil and cultivated in a greenhouse under controlled growth conditions. 2 to 3 weeks after sowing, the test plants are treated at the one-leaf stage. The compounds of the invention, formulated in the form of wettable powders (WP) or as emulsion concentrates (EC), are then sprayed onto the green parts of the plants as aqueous suspension or emulsion with addition of 0.5% additive at a water application rate of 600 l/ha (converted). After the test plants have been kept in the greenhouse under optimum growth conditions for about 3 weeks, the activity of the preparations is rated visually in comparison to untreated controls. For example, 100% activity=the plants have died, 0% activity=like control plants. Tables 39 to 49 below show the effects of selected compounds of the general formula (I) according to Tables 1 and 2 on various harmful plants and at an application rate corresponding to 320 g/ha, which were obtained by the experimental procedure mentioned above.

[5] = system: VIOTR; test: Post-emergence action at 320 g/ha against VIOTR; format: in vivo, Viola tricolor; details: visual rating about 3 weeks after treatment vs untreated controls; for pest or weed control at 320 g/ha: Viola tricolor, 504 h
Method in brief: as §1

[6] = system: DIGSA; test: Post-emergence action at 320 g/ha against DIGSA; format: in vivo, Digitaria sanguinalis; details: dosage 320 g/ha, visual rating about 3 weeks after treatment vs untreated controls (100% = plants died); for pest or weed control at 320 g/ha: Digitaria sanguinalis, 504 h
Method in brief: as §1

[7] = system: ABUTH; test: Post-emergence action against ABUTH, 1.28 kg/ha; format: in vivo, Abutilon theophrasti; details: dosage 1280 g/ha, visual rating about 3 weeks after treatment vs untreated controls (100% = plants died)
Method in brief: (§3)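 Percent activity was scored visually ~3 wk post-spray relative to untreated plants. Treatment was post-emergence at the one-leaf stage using WP/EC in water with 0.5% additive (600 L/ha).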

[8] = system: SETVI; test: Post-emergence action at 320 g/ha against SETVI; format: in vivo, Setaria viridis; details: visual rating about 3 weeks after treatment vs untreated controls
Method in brief: as §1

[9] = system: LOLRI; test: Post-emergence action against LOLRI, 1.28 kg/ha; format: in vivo, Lolium rigidum; details: dosage 1280 g/ha, visual rating about 3 weeks after treatment vs untreated controls
Method in brief: as §3

[10] = system: ECHCG; test: Post-emergence action against ECHCG, 1.28 kg/ha; format: in vivo, Echinochloa crus-galli; details: dosage 1280 g/ha, visual rating about 3 weeks after treatment vs untreated controls; for pest or weed control at 1280 g/ha: Echinochloa crus-galli, 504 h
Method in brief: as §3

[11] = system: AMARE; test: Post-emergence action against AMARE, 1.28 kg/ha; format: in vivo, Amaranthus retroflexus; details: dosage 1280 g/ha, visual rating about 3 weeks after treatment vs untreated controls (100% = plants died)
Method in brief: as §3

[12] = system: AVEFA; test: Post-emergence action at 320 g/ha against AVEFA; format: in vivo; details: visual rating about 3 weeks after treatment vs untreated controls; for pest or weed control at 320 g/ha: Avena fatua, 504 h
Method in brief: as §1

[13] = system: ECHGC; test: Pre-emergence action at 320 g/ha against ECHGC; format: in vivo, Echinochloa crus-galli; details: visual scoring after about 3 weeks vs untreated controls
Method in brief: as §2

[14] = system: ECHCG; test: Post-emergence action at 320 g/ha against ECHCG; format: in vivo, Echinochloa crus-galli; details: dosage 320 g/ha, visual rating about 3 weeks after treatment vs untreated controls (100% = plants died)
Method in brief: as §1

[15] = system: KCHSC; test: Post-emergence action against KCHSC, 1.28 kg/ha; format: in vivo, Bassia scoparia; details: dosage 1280 g/ha, visual rating about 3 weeks after treatment vs untreated controls (100% = plants died)
Method in brief: as §3

[16] = system: PHBPU; test: Pre-emergence action at 320 g/ha against PHBPU; format: in vivo; details: visual scoring after about 3 weeks vs untreated controls
Method in brief: as §2

[17] = system: ALOMY; test: Pre-emergence action against ALOMY, 1280 g/ha; format: in vivo, Alopecurus myosuroides; details: visual scoring after about 3 weeks vs untreated controls, 100% = plants have died, 0% = like control plants
Method in brief: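 Compound applied as WP or EC in aqueous spray (0.5% additive, 600 L/ha) to the surface of sandy loam covering freshly sown seeds. After about 3 weeks under good greenhouse conditions, damage is given as visual percentage, 100% meaning plant death.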

| Structure (SMILES) | Post-emergence action against ABUTH in % [1] | Pre-emergence action at 320 g/ha against STEME in % [2] | pest or weed control at 320 g/ha [3] | Post-emergence action against HORMU in % [4] | pest or weed control at 320 g/ha [5] | pest or weed control at 320 g/ha [6] | Post-emergence action against ABUTH [7] | Post-emergence action against SETVI in % [8] | Post-emergence action against LOLRI [9] | pest or weed control at 1280 g/ha [10] | Post-emergence action against AMARE [11] | pest or weed control at 320 g/ha [12] | Post-emergence action against VIOTR in % [5] | Pre-emergence action against ECHGC in % [13] | Post-emergence action at 320 g/ha against ECHCG in % [14] | Post-emergence action against ECHCG [10] | Post-emergence action against AVEFA in % [12] | Pre-emergence action against VIOTR in % [3] | other results |
| --- | --- | --- | --- | --- | --- | --- | --- | --- | --- | --- | --- | --- | --- | --- | --- | --- | --- | --- | --- |
| COC(=O)COc1nn(-c2ccccc2F)c(-c2cncnc2)c1Br [VI-004, Methyl {[4-bromo-1-(2-fluorophenyl)-5-(pyrimidin-5-yl)-1H-pyrazol-3-yl]oxy}acetate] | 80% | 90% | 100% | 90% | 80% | 90% | 90% | 80% | 100% | 90% | 100% | 100% | – | – | – | – | – | – | – |
| COC(=O)COc1nn(-c2ccc(F)cc2)c(-c2ccc(F)nc2)c1Br [VII-002] | 80% | 90% | – | 90% | – | – | 90% | 80% | – | – | – | – | 90% | 90% | 90% | 90% | 100% | – | – |
| COC(=O)[C@@H](C)Oc1nn(-c2ccccc2)c(-c2cccnc2)c1Br [VII-008] | 90% | – | – | – | – | – | 90% | 100% | 100% | – | 90% | – | 90% | 80% | 90% | 100% | 90% | 100% | Post-emergence action against KCHSC [15]: 90%; Post-emergence action at 320 g/ha against DIGSA in % [6]: 80%; Pre-emergence action against PHBPU in % [16]: 80%; Pre-emergence action against ALOMY [17]: 100% |
| CCOC(=O)COc1nn(-c2ccc(F)cc2F)c(-c2ccc(F)nc2)c1Cl [VII-016] | 90% | 90% | – | 80% | – | – | 90% | 80% | 90% | – | 90% | – | 80% | 100% | 80% | 90% | 80% | 90% | Pre-emergence action against PHBPU in % [16]: 90% |
| COC(=O)C(C)Oc1nn(-c2ccccc2)c(-c2ccc(F)nc2)c1Cl (stereo not shown) [VII-023, Methyl 2-{[4-chloro-5-(6-fluoropyridin-3-yl)-1-phenyl-1H-pyrazol-3-yl]oxy}propanoate] | 90% | 90% | 100% | 90% | 80% | 90% | – | – | 100% | 90% | – | 80% | – | 90% | 80% | – | – | – | – |
| CCC(Oc1nn(-c2ccccc2F)c(-c2ccc(F)nc2)c1Br)C(=O)OC (stereo not shown) [VII-029] | 80% | 90% | – | 90% | – | – | – | – | 100% | – | 90% | – | 100% | – | 80% | 100% | 90% | 100% | Post-emergence action against KCHSC [15]: 90%; Pre-emergence action against ALOMY [17]: 90% |
| CCOC(=O)COc1nn(-c2ccccc2F)c(-c2ccnc(F)c2)c1Br [VIII-003, Ethyl {[4-bromo-1-(2-fluorophenyl)-5-(2-fluoropyridin-4-yl)-1H-pyrazol-3-yl]oxy}acetate] | – | 80% | 100% | – | 80% | 80% | 90% | – | 100% | 100% | 90% | 90% | – | 90% | 80% | – | – | – | – |
| O=C(O)COc1nn(-c2ccccc2F)c(-c2ccnc(F)c2)c1Br [VIII-004] | – | 90% | – | 90% | – | – | – | 80% | 100% | – | 90% | – | 90% | 90% | 90% | 90% | 100% | 90% | Post-emergence action at 320 g/ha against DIGSA in % [6]: 90% |
